Measured values reported in patent US6935334B2, “Enhancing therapeutic effectiveness of nitric oxide inhalation” (The General Hospital Corporation, priority 2000, dated 2005).

Legend:
[1] = system: hypoxic pulmonary vasoconstriction (HPV) in mice; test: Change in incremental left pulmonary vascular resistance (ΔiLPV) in response to LMBO, a measure of HPV (Example 2, FIG. 8); assay type: in vivo, mouse
Experimental: We performed experiments on the change in incremental left pulmonary vascular resistance, ΔiLPV, in response to LMBO—a measure of HPV. HPV was impaired in wild-type mice challenged with endotoxin (FIG. 8). HPV was preserved in endotoxin-challenged mice treated with N-acetylcysteine at 500 mg/kg, but not 150 mg/kg (intraperitoneal administration simultaneously with endotoxin).

[2] = system: isolated-perfused mouse lungs preconstricted with U46619; test: Pulmonary vasodilator response to NO inhalation in isolated, perfused and ventilated mouse lungs preconstricted with U46619; assay type: in vivo; conditions: for vasodilator response to NO inhalation, compared to that in control mice: endotoxin-challenged (LPS 50 mg/kg i.p.) wild-type mice treated with NAC 150 mg/kg i.p. immediately and 3.5 hours later, lungs isolated 16 hours after endotoxin; for impairment of responsiveness to NO inhalation: wild-type mice treated with endotoxin, scavengers of reactive oxygen and nitrogen species
Experimental: Isolated, Perfused, and Ventilated Mouse Lung Model Mice were killed by intraperitoneal injection of pentobarbital sodium (200 mg/kg body weight) and placed in a 37° C. water-jacketed chamber (Isolated Perfused Lung Size 1 Type 839; Hugo-Sachs Elektronik, March-Hugstetten, Germany). The trachea was isolated and intubated, and the lungs were ventilated with 21% O2, 6% CO2 and 73% N2 using a volume-controlled ventilator (model 687; Harvard Apparatus, South Natick, Mass.) at a ventilatory rate of 85 breaths/min and 2 cm H2O end-expiratory pressure. The tidal volume was adjusted to provide a peak inspiratory pressure of 10 cm H2O throughout each study. The lungs were exposed via a midline sternotomy, and a ligataure was placaed around the aorticopulmonary outflow tract. After injection of 10 IU heparin into the right ventricle, the pulmonary artery was cannulated with a stainless steel cannula (1 mm ID) via the right ventricle. The pulmonary venous effluent was drained via a stainless steel cannula (1 mm ID) placed through the apex of the left ventricle across the mitral valve and into the left atrium. Left atrial pressure was maintained at 2 mmHg. Lungs were perfused at a constant flow (50 ml. kg body weight^−1. min^−1; Ismatec Reglo-Analogue roller pump; Laboratoriumstechnik GmbH, Wertheim-Mondfeld, Germany) with a non-recirculating system at 37° C. The perfusate used was Hanks' Balanced Salt Solution (GibcoBRL, Grand Island, N.Y.) containing 1.26 mM CaCl2, 5.33 mM KCl, 0.44 mM KH2PO4, 0.50 mM MgCl2, 0.41 mM MgSO4, 138.0 mM NaCl, 4.0 mM NaHCO3, 0.3 mM Na2HPO4, and 5.6 mM glucose. Bovine serum albumin, 5%, and dextran, 5% (both from Sigma Chemical Co., St. Louis, Mo.), were added to the perfusate to prevent pulmonary edema, in the isolated, perfused, and ventilated rat lung, essentially as described in Holzmann et al., 1996, Am. J. Physiol. 271:L981-L986. Indomethacin, […] (Sigma Chemical Co.), and 1 mM L-NAME (Sigma Chemical Co.) were added to the perfusate to inhibit endogenous prostaglandin and NO synthesis, respectively. Sodium bicarbonate was added to adjust the perfusate pH to 7.34-7.43.
Pulmonary artery pressure (PAP) and left atrial pressure were measured via saline-filled membrane pressure transducers (Argon, Athens, Tex.) connected to a side port of the inflow and outflow cannulae, respectively. Airway pressure (Paw) was measured using a differential pressure transducer (model MP-45-32-871; Validyne Engineering Corp., Northridge, Calif.) connected to the inspiratory limb just before the Y piece. Pressure transducers were connected to a biomedical amplifier (Hewlett Packard 7754B, Andover, Mass.), and data were recorded at 150 Hz on a personal computer using an analog-to-digital interface with a data acquisition system (DI-220; Dataq Instruments, Akron, Ohio). The system was calibrated before each experiment.
For NO inhalation, NO gas (800 or 80 ppm NO in nitrogen, Airco, Murray Hill, N.J.) was blended (Oxygen Blender; Bird Corporation, Palm Springs, Calif.) with oxygen, carbon dioxide, and nitrogen to achieve a final concentration of 21% O2, 6% CO2, and the desired NO concentration. NO and higher oxidative states of NO (NOx; CLD 700 AL; Eco Physics, Dürmten, Switzerland), oxygen (Hudson Ventronics Ddivision, Temecula, Calif.), and carbon dioxide (Datex CO2 monitor; Puritan-Bennett Corpration, Los Angeles, Calif.) concentrations were monitored continuously.
Pulmonary Vascular Response to NO inhalation after Lipopolysaccharide Challenge Wild-type mice and NOS2-deficient mice were injected intraperitoneally with 50 mg/kg body weight Escherichia coli 0111:B4 lipopolysaccharide (LPS; Difco Laboratories, Detroit, Mich.) dissolved in saline 16 h before isolated lung perfusion. This time point was chosen based on previous studies in rats (Holzmann et al., 1996, Am. J. Physiol. 271:L981-L986). Untreated wild-type and NOS2-deficient mice served as controls. […]

[3] = system: pulmonary vasculature of wild-type mice; test: Pulmonary vasoconstrictor response to intravenous angiotensin II; assay type: in vivo, mouse; conditions: for PVR: 5.0 μg/kg per minute angiotensin II
Experimental: Group 6: pulmonary vascular response to increasing doses of intravenous angiotensin II. SV129/B6F1 wild-type mice treated with endotoxin (n=5) or with saline (n=3) were studied 22 hours after the challenge.
Infusion of angiotensin II. Increasing doses of angiotensin II (0.05, 0.5, and 5.0 ng/g bw per minute) dissolved in sterile normal saline were infused via the central venous catheter using an infusion pump (Pump 11; Harvard Apparatus Co., South Natick, Mass.). PLA, PPA, PSA, and QLTAF were continuously measured.

[4] = system: hypoxic pulmonary vasoconstriction (HPV) in mice; test: Percent increase in left pulmonary vascular resistance (LPVR) after LMBO, one-lung hypoxia model (Example 3, FIG. 13); assay type: in vivo, mouse; conditions: endotoxin-challenged wild-type mice
Experimental: Wild-type (SV129B6/F1) mice and 5LO-deficient mice were anesthetized and studied at thoracotomy. Left pulmonary artery flow (QLPA) and pulmonary (PPA) and systemic (PSA) artery pressures were measured continuously.
HPV was assessed as the percent increase in left pulmonary vascular resistance (the slope of the P/Q-relationship, LPVR) after left main bronchus occlusion (LMBO). LMBO increased LPVR by 99±13% in 5LO deficient mice, and by 100±11% in wild-type mice.

## CC(=O)N[C@@H](CS)C(=O)O [N-acetylcysteine]
[1]; endotoxin-challenged mice, 150 mg/kg intraperitoneally simultaneously with endotoxin
  HPV (ΔiLPV in response to LMBO): not
[1]; endotoxin-challenged mice, 500 mg/kg intraperitoneally simultaneously with endotoxin
  HPV (ΔiLPV in response to LMBO): preserved
[1]; endotoxin-challenged wild-type mice treated with N-acetylcysteine and exposed to 20 ppm NO for 22 hours
  HPV: not impaired
[2]; 0.4 ppm NO
  vasodilator response to NO inhalation, compared to that in control mice: 75±14%
[2]; 4.0 ppm NO
  vasodilator response to NO inhalation, compared to that in control mice: 103±15%
[2]; 40 ppm NO
  vasodilator response to NO inhalation, compared to that in control mice: 91±7%
[2]; endotoxin-challenged, NAC-treated mice exposed to 20 ppm NO for 16 hours
  responsiveness to NO inhalation after prolonged NO exposure: preserved
[2]; two doses of 150 mg/kg i.p., simultaneously with lipopolysaccharide and 3.5 hours later
  lipopolysaccharide-induced attenuation of vasoreactivity to NO inhalation (FIG. 5): completely protected
[2]
  impairment of responsiveness to NO inhalation: prevented impairment of responsiveness to NO inhalation

## CNC(=O)NC [dimethylurea]
[2]
  impairment of responsiveness to NO inhalation: prevented impairment of responsiveness to NO inhalation

## angiotensin II: vasoconstrictor infused intravenously to test pulmonary vascular contractile function (DRVYIHPF; Angiotensin-2; UniProt P01019 25-32, looked up)
[3]; endotoxin-challenged wild-type mice, baseline 55±11
  PVR: 174±40 mmHg·min·g·mL^−1
[3]; saline-treated wild-type mice without endotoxin, baseline 74±24
  PVR: 184±25 mmHg·min·g·mL−1
[3]; saline-treated and endotoxin-treated wild-type mice (either group)
  PLA in response to angiotensin II infusion: did not change

## CN(C)C(=O)CCSC(SCCC(=O)O)c1cccc(/C=C/c2ccc3ccc(Cl)cc3n2)c1 (stereo not drawn) [MK571]
[4]
  HPV (LMBO-induced increase in left PVR): preserved

## CC(C)c1ccc2c(c1)c(SC(C)(C)C)c(CC(C)(C)C(=O)O)n2Cc1ccc(Cl)cc1 [MK886]
[4]
  HPV (LMBO-induced increase in left PVR): preserved

## [Cl-].[Mn+3].[O-]c1ccccc1C=NCCN=Cc1ccccc1[O-] [EUK-8]
[1]; endotoxin-challenged mice treated with EUK-8
  HPV (ΔiLPV in response to LMBO): completely preserved
[2]
  impairment of responsiveness to NO inhalation: prevented impairment of responsiveness to NO inhalation

B1: catalase: scavenger of reactive oxygen and nitrogen species (anti-ROS agent) (protein, UniProt P04040 2-527, looked up)
Catalase: ADSRDPASDQMQHWKEQRAAQKADVLTTGAGNPVGDKLNVITVGPRGPLLVQDVVFTDEMAHFDRERIPERVVHAKGAGAFGYFEVTHDITKYSKAKVFEHIGKKTPIAVRFSTVAGESGSADTVRDPRGFAVKFYTEDGNWDLVGNNTPIFFIRDPILFPSFIHSQKRNPQTHLKDPDMVWDFWSLRPESLHQVSFLFSDRGIPDGHRHMNGYGSHTFKLVNANGEAVYCKFHYKTDQGIKNLSVEDAARLSQEDPDYGIRDLFNAIATGKYPSWTFYIQVMTFNQAETFPFNPFDLTKVWPHKDYPLIPVGKLVLNRNPVNYFAEVEQIAFDPSNMPPGIEASPDKMLQGRLFAYPDTHRHRLGPNYLHIPVNCPYRARVANYQRDGPMCMQDNQGGAPNYYPNSFGAPEQQPSALEHSIQYSGEVRRFNTANDDNVTQVRAFYVNVLNEEQRKRLCENIAGHLKDAQIFIQKKAVKNFTEVHPDYGSHIQALLDKYNAEKPKNAIHTFVQSGSHLAAREKANL
[2]
  impairment of responsiveness to NO inhalation: prevented impairment of responsiveness to NO inhalation
